In PubChem BioAssay (NCI):
Values joined by “and” are separate entries in the source; they are usually repeats but may differ in a detail not shown here. Identical values can stand only once.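 96-well plates; 48 h exposure; 5 concentrations. Endpoints by linear interpolation between flanking doses. Not reached: highest tested concentration assigned. Here, GI50 denotes the concentration required for 50% inhibition of growth. TGI denotes the concentration required for complete inhibition of growth.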

Tests used:
Assay in all cases: NCI tumour cell line growth inhibition, 48 h
SK-MEL-2 melanoma = test system: SK-MEL-2 melanoma
OVCAR-8 ovarian = test system: OVCAR-8 ovarian
IGROV1 ovarian = test system: IGROV1 ovarian
COLO 205 colon = test system: COLO 205 colon
NCI-H23 lung = test system: NCI-H23 lung
MOLT-4 leukemia = test system: MOLT-4 leukemia
RPMI-8226 leukemia = test system: RPMI-8226 leukemia
SF-268 CNS = test system: SF-268 CNS
786-0 renal = test system: 786-0 renal
PC-3 prostate = test system: PC-3 prostate

SMILES	GI50 (SK-MEL-2 melanoma)	TGI (SK-MEL-2 melanoma)	GI50 (OVCAR-8 ovarian)	GI50 (IGROV1 ovarian)	TGI (IGROV1 ovarian)	GI50 (COLO 205 colon)	TGI (COLO 205 colon)	GI50 (NCI-H23 lung)	TGI (MOLT-4 leukemia)	GI50 (RPMI-8226 leukemia)	TGI (RPMI-8226 leukemia)	GI50 (SF-268 CNS)	TGI (SF-268 CNS)	GI50 (786-0 renal)	TGI (OVCAR-8 ovarian)	TGI (NCI-H23 lung)	TGI (PC-3 prostate)	TGI (786-0 renal)	GI50 (MOLT-4 leukemia)
CC[C@@]1(OP(=O)(O)O)C(=O)OCc2c1cc1n(c2=O)Cc2cc3ccccc3nc2-1	1.85 µM	7.36 µM and 5.05 µM	0.427 µM	0.377 µM	4.51 µM and 5.58 µM	1.21 µM	5.64 µM	0.0827 µM	0.147 µM and 0.395 µM	0.187 µM	2.27 µM and 4.58 µM	0.0774 µM	5.28 µM and 9.45 µM	0.0367 µM					
C[N+]1([O-])C2CCC1CC(OC(=O)C(CO)c1ccccc1)C2 (centres undefined)		> 100 µM			> 100 µM		> 100 µM		> 100 µM		> 100 µM		> 100 µM		> 100 µM	> 100 µM	> 100 µM	> 100 µM	
Cc1ccc(S(=O)c2ccccc2[N+](=O)[O-])cc1 (centres undefined)		> 100 µM			> 100 µM				> 100 µM		> 100 µM				> 100 µM	> 100 µM		> 100 µM	
N#CC(C(=O)CCCC(=O)Nc1ccccc1[N+](=O)[O-])c1c(Cl)cccc1Cl (centres undefined)		> 100 µM			> 100 µM		> 100 µM		> 100 µM		> 100 µM		> 100 µM		> 100 µM	> 100 µM		> 100 µM	
CN(C)CCC(N)(P(=O)([O-])[O-])P(=O)([O-])[O-].N.N.[Pt+2]	> 100 µM	> 100 µM	> 100 µM	> 100 µM	> 100 µM	> 100 µM	> 100 µM		> 100 µM	> 100 µM	> 100 µM	> 100 µM	> 100 µM	> 100 µM	> 100 µM			> 100 µM	> 100 µM
COc1ccc(C2COc3c(ccc(OC)c3OC)C2=O)cc1OC (centres undefined)					> 100 µM		> 100 µM		> 100 µM		> 100 µM		> 100 µM		> 100 µM	> 100 µM		> 100 µM	
Cc1ccc(N)c(S)c1		31.5 µM			31.5 µM		52.9 µM		47 µM				46.2 µM		30.8 µM	36.3 µM	28.6 µM	29.6 µM	
O=C1C2C3CC4C5C3C1C5C1(SCCS1)C42 (centres undefined)		> 100 µM			> 100 µM		> 100 µM		> 100 µM		> 100 µM		> 100 µM		> 100 µM			> 100 µM	
NC(N)NCCCc1cn2c(n1)C1CCCN1C(=O)C2Cc1ccccc1 (centres undefined)		> 100 µM			> 100 µM		> 100 µM		> 100 µM		> 100 µM		> 100 µM		> 100 µM	> 100 µM		> 100 µM	
CC1(OCc2ccccc2)C(=O)N2C1NCC2(C)C (centres undefined)		> 100 µM			> 100 µM		> 100 µM		> 100 µM		> 100 µM		> 100 µM		> 100 µM	> 100 µM		> 100 µM	
